In ChEMBL document CHEMBL5390235, “Reading and erasing of histone crotonyllysine mimics by the AF9 YEATS domain and SIRT2 deacylase” (Bioorg Med Chem, 2023):
Active and inactive are the calls of the source. No cut-off for these calls is given here.

Tests used:
[1] = molecular target: T1, NAD-dependent protein deacetylase sirtuin-2 (Homo sapiens) (UniProt Q8IXJ6); assay: Induction of recombinant human SIRT2 (50 to 356 residues) deacetylase activity measured after 24 hrs in presence of NAD+ by MALDI-TOF-MS analysis
T1 sequence (whole entry): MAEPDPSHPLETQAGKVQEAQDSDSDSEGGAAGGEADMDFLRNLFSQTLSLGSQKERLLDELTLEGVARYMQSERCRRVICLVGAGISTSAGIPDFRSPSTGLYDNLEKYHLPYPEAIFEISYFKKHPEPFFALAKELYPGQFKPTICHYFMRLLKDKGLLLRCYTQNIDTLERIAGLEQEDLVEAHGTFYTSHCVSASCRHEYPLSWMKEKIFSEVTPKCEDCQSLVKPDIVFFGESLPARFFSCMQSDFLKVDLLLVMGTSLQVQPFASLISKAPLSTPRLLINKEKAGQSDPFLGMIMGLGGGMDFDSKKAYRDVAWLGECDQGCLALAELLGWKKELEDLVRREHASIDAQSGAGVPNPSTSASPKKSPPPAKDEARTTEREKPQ

Protein AF-9 = molecular target: T2, Protein AF-9 (Homo sapiens, UniProt P42568); assay: Binding affinity to N-terminal His-tagged recombinant human AF9 YEATS domain (1 to 138 residues) expressed in Escherichia coli 2(DE3)pLysS cells assessed as dissociation constant by ITC assay
T2 sequence (P42568 whole entry): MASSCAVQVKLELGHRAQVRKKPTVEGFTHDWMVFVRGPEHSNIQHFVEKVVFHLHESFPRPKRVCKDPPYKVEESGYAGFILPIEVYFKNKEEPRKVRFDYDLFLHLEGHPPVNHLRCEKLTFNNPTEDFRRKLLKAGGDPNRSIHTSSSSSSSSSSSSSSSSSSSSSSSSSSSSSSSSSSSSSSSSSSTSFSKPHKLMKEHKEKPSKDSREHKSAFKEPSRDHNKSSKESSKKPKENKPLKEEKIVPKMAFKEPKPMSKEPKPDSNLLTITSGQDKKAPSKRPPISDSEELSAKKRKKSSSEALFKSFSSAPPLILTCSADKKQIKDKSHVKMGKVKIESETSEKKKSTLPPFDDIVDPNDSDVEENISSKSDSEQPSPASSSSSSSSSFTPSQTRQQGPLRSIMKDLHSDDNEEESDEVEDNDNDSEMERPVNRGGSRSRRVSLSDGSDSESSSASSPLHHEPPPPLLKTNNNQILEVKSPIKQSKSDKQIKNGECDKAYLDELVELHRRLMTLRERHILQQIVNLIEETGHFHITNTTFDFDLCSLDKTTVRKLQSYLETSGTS

[2] = molecular target: T1, NAD-dependent protein deacetylase sirtuin-2 (Homo sapiens); assay: Induction of recombinant human SIRT2 (50 to 356 residues) deacetylase activity measured after 6 hrs in presence of NAD+ by MALDI-TOF-MS analysis; parameters: concentration or dose not given beside the values

SMILES	Activity [1]	Kd (Protein AF-9)	Activity ([2]; filed as activator)	Activity [2]	Activity ([1]; filed as activator)
CC(C)=CC(=O)NCCCC[C@H](NC(=O)[C@H](CCCNC(=N)N)NC(=O)[C@H](C)NC(=O)[C@@H](NC(=O)[C@H](CCC(N)=O)NC(=O)[C@H](CCCCN)NC(=O)[C@@H](N)[C@@H](C)O)[C@@H](C)O)C(=O)N[C@@H](CO)C(=O)N[C@H](C(=O)NCC(=O)NCC(=O)N[C@@H](CCCCN)C(=O)N[C@@H](C)C(=O)O)[C@@H](C)O	12%	159 µM	–	2%	–
CC#CC(=O)NCCCC[C@H](NC(=O)[C@H](CCCNC(=N)N)NC(=O)[C@H](C)NC(=O)[C@@H](NC(=O)[C@H](CCC(N)=O)NC(=O)[C@H](CCCCN)NC(=O)[C@@H](N)[C@@H](C)O)[C@@H](C)O)C(=O)N[C@@H](CO)C(=O)N[C@H](C(=O)NCC(=O)NCC(=O)N[C@@H](CCCCN)C(=O)N[C@@H](C)C(=O)O)[C@@H](C)O	–	20.5 µM	–	30%	50%
C[C@H](NC(=O)[C@H](CCCCN)NC(=O)CNC(=O)CNC(=O)[C@@H](NC(=O)[C@H](CO)NC(=O)[C@H](CCCCNC(=O)/C=C/C(F)(F)F)NC(=O)[C@H](CCCNC(=N)N)NC(=O)[C@H](C)NC(=O)[C@@H](NC(=O)[C@H](CCC(N)=O)NC(=O)[C@H](CCCCN)NC(=O)[C@@H](N)[C@@H](C)O)[C@@H](C)O)[C@@H](C)O)C(=O)O	inactive	48.5 µM	–	–	–
C/C=C(\C)C(=O)NCCCC[C@H](NC(=O)[C@H](CCCNC(=N)N)NC(=O)[C@H](C)NC(=O)[C@@H](NC(=O)[C@H](CCC(N)=O)NC(=O)[C@H](CCCCN)NC(=O)[C@@H](N)[C@@H](C)O)[C@@H](C)O)C(=O)N[C@@H](CO)C(=O)N[C@H](C(=O)NCC(=O)NCC(=O)N[C@@H](CCCCN)C(=O)N[C@@H](C)C(=O)O)[C@@H](C)O	–	46.5 µM	–	39%	–

Stronger by Kd (Protein AF-9), values ahead:

Activity [1]	Kd (Protein AF-9)	Activity ([2]; filed as activator)	Activity [2]	Activity ([1]; filed as activator)	SMILES
inactive	5.1 µM	–	–	–	C[C@H](NC(=O)[C@H](CCCCN)NC(=O)CNC(=O)CNC(=O)[C@@H](NC(=O)[C@H](CO)NC(=O)[C@H](CCCCNC(=O)/C=C/c1ccccc1)NC(=O)[C@H](CCCNC(=N)N)NC(=O)[C@H](C)NC(=O)[C@@H](NC(=O)[C@H](CCC(N)=O)NC(=O)[C@H](CCCCN)NC(=O)[C@@H](N)[C@@H](C)O)[C@@H](C)O)[C@@H](C)O)C(=O)O
–	13.6 µM	75%	–	–	CC/C=C/C(=O)NCCCC[C@H](NC(=O)[C@H](CCCNC(=N)N)NC(=O)[C@H](C)NC(=O)[C@@H](NC(=O)[C@H](CCC(N)=O)NC(=O)[C@H](CCCCN)NC(=O)[C@@H](N)[C@@H](C)O)[C@@H](C)O)C(=O)N[C@@H](CO)C(=O)N[C@H](C(=O)NCC(=O)NCC(=O)N[C@@H](CCCCN)C(=O)N[C@@H](C)C(=O)O)[C@@H](C)O
–	7.8 µM	60%	–	–	C/C=C/C(=O)NCCCC[C@H](NC(=O)[C@H](CCCNC(=N)N)NC(=O)[C@H](C)NC(=O)[C@@H](NC(=O)[C@H](CCC(N)=O)NC(=O)[C@H](CCCCN)NC(=O)[C@@H](N)[C@@H](C)O)[C@@H](C)O)C(=O)N[C@@H](CO)C(=O)N[C@H](C(=O)NCC(=O)NCC(=O)N[C@@H](CCCCN)C(=O)N[C@@H](C)C(=O)O)[C@@H](C)O
–	13.7 µM	55%	–	–	C=CC(=O)NCCCC[C@H](NC(=O)[C@H](CCCNC(=N)N)NC(=O)[C@H](C)NC(=O)[C@@H](NC(=O)[C@H](CCC(N)=O)NC(=O)[C@H](CCCCN)NC(=O)[C@@H](N)[C@@H](C)O)[C@@H](C)O)C(=O)N[C@@H](CO)C(=O)N[C@H](C(=O)NCC(=O)NCC(=O)N[C@@H](CCCCN)C(=O)N[C@@H](C)C(=O)O)[C@@H](C)O
